Measurements published in patent US20090123581A1, “COLLAGEN CROSS-LINKING AGENTS ON DENTAL RESTORATIVE TREATMENT AND PREVENTIVE DENTISTRY” (THE BOARD OF TRUSTEES OF THE UNIVERSITY OF ILLINOIS, priority 2006, published 2009).
Values joined by “and” are separate entries in the source; they are usually repeats but may differ in a detail not shown here. Equal values may be shown once.

Legend:
[1] = Tensile bond strength (TBS) of a total-etch adhesive with or without proteolytic challenge (Example 5); design: species or system human; settings: for TBS (tensile bond strength): 5% glutaraldehyde 1 hour after etching, One-Step adhesive
Description: To evaluate the effect of glutaraldehyde on the tensile bond strength (TBS) of a total-etch adhesive with or without proteolytic challenge, the experiment described below was performed.
Ten human molars were polished until occlusal dentin was exposed and were divided according to the surface treatment: a control (no treatment) treatment (G1) and a 5% glutaraldehyde treatment (G2). Samples of G1 were etched with 37% phosphoric acid, rinsed, blotted dried, and One-Step (Bisco, Richmond, BC, Canada) was applied, followed by application of a composite resin used to build-up a “crown.” G2 was treated in the same manner, except that after etching, 5% glutaraldehyde was applied on the surface for 1 hour. After 24 hours, samples were sectioned into 1.0×1.0 mm beams. The beams were subdivided according to the proteolytic challenge: stored in water for 2 hours (no challenge) and stored in 1.5% NaOCl solution for 2 hours. Then samples were rinsed and tested in tensile at a crosshead speed of 1 mm/min using a universal testing machine. Data were statistically analyzed using ANOVA and Fisher's PLSD tests (p<0.05).

[2] = Modulus of elasticity of demineralized dentin, 3-point bend method (Example 3); design: species or system human; settings: for modulus of elasticity, pooled data: pooled over all times (baseline to 4 h)
Description: Twelve sound extracted human molars were used. The teeth were thawed, cleaned of adhering soft tissues, and the occlusal surfaces were ground flat with #320 grit silicon carbide abrasive paper under running water to remove part of the enamel (Buehler, Lake Bluff, Ill.). Flattening of the occlusal surface by cusp removal enables more accurate sectioning of samples. The root portion was sectioned 1 mm below the CEJ and discarded. Teeth were sectioned into 0.5±0.1 mm thick beams (n=5 beams per tooth) in the mesio-buccal direction with a slow speed diamond wafering blade (Buehler-Series 15LC Diamond) under constant water irrigation (FIG. 1A). The sections were further trimmed using a cylindrical diamond bur (#557D, Brasseler, Savannah, Ga.) in a high speed handpiece, to a final rectangular dimension of 0.5 mm thickness×1.7 mm width×7.0 mm length. A dimple was made at one end of the surfaces to allow for repeated measurements to be performed on the same surface (FIG. 1A).
Specimens were immersed in 10% phosphoric acid solution (LabChem Inc, Pittsburgh, Pa.) for a period of 5 hours and thoroughly rinsed with distilled water for 10 minutes. X-rays were taken of the specimens to verify complete tissue demineralization. Demineralized specimens were randomly divided into the following groups according to dentin treatment (FIG. 1B): 2.5% glutaraldehyde (Fisher Biotech, Fair Lawn, N.J.) in PBS (pH: 7.4); 5% glutaraldehyde in PBS (pH: 7.4); 25% glutaraldehyde in PBS (pH: 7.4); 0.65% grape seed extract (Mega-Natural—Polyphenolics Ind., Madera, Calif.) in PBS (pH: 7.4); and 6.5% grape seed extract in PBS solution (pH: 7.4). Specimens were immersed in water for baseline measurements and then in their respective solutions for 10 min, 30 min, 1 hour, 2 hour and 4 hours of cumulative exposure (FIG. 1C).
The 3-point bend method was selected for evaluation of the modulus of elasticity. The advantages of this method are that it requires no gripping of these small specimens and that it is non-destructive and therefore permits repeated measurements to be performed (FIG. 1C). An aluminum alloy fixture with a 5.0 mm span between supports was glued to the bottom of a glass Petri dish. Specimens were tested in compression while immersed in liquid using a Vitrodyne testing machine (Model V-1000, Chatillon, Greensboro, N.C.) with a 50 grams load cell at crosshead speed of 0.5 mm/min. Load-displacement curves were converted to stress-strain curves and the apparent modulus of elasticity calculated at 3% strain. Displacement (D) during compression was calculated at a maximum strain of 3% using the following formula (Nielsen L E. Mechanical properties of polymers and composites. Vol. 1, New York: Marcel Dekker Inc., 1974, p. 45.):
Where ε is strain, L is support span and T is thickness of the specimen.
Then the modulus of elasticity (É) of the specimens was calculated using the following formula (Nielsen, 1974): […]
Where P is the maximum load, L is the support span, D is the displacement, b width of the specimen and T is the thickness of the specimen.
Baseline measurements were obtained with specimens immersed in distilled water. All experimental periods were evaluated with the samples immersed in their respective cross-linking agents. A total of 10-12 specimens were evaluated per group. The data were collected and statistically analyzed using a General Linear Model SPSS program for ANOVA repeated measurements at a 95% confidence interval.

[3] = UTS of demineralized dentin after collagenase challenge (Example 7); settings: for UTS, individual specimens / UTS, mean: 1 h 25% GD or 6.5% GSE
Description: The data shown below in Tables 7 to 14 and in FIG. 8 describes the effect of grape seed extract and Glutaraldehyde on the tensile strength of demineralized dentin after collagenase challenge. Samples were treated and then subjected to collagenase digestion.

[4] = 24 hrs ammonium bicarbonate buffer, no collagenase
[5] = 24 hrs collagenase 100 ug/ml + ammonium bicarbonate buffer

## O=CCCCC=O [GD, glutaraldehyde]
[1]; No challenge (water 2 hours)
  TBS (tensile bond strength): 71.11 (12.20)A MPa
[1]; stored in 1.5% NaOCl 2 hours
  TBS (tensile bond strength): 65.91 (18.06)AB MPa
[1]; 5% glutaraldehyde, 1.5% NaOCl 2 hours
  change in TBS values after NaOCl storage: not significantly affected
[2]; 2.5% GD group, Baseline (in distilled water, before exposure)
  modulus of elasticity: 4.82 MPa
[2]; 2.5% GD in PBS pH 7.4, 10 min cumulative exposure
  modulus of elasticity: 20.45 MPa
[2]; 2.5% GD in PBS pH 7.4, 30 min cumulative exposure
  modulus of elasticity: 30.22 MPa
[2]; 2.5% GD in PBS pH 7.4, 1 h cumulative exposure
  modulus of elasticity: 32.10 MPa
[2]; 2.5% GD in PBS pH 7.4, 2 h cumulative exposure
  modulus of elasticity: 34.44 MPa
[2]; 2.5% GD in PBS pH 7.4, 4 h cumulative exposure
  modulus of elasticity: 34.86 MPa
[2]; 2.5% GD
  modulus of elasticity, pooled data: 26.15 A MPa
[2]; 5% GD group, Baseline (in distilled water, before exposure)
  modulus of elasticity: 5.97 MPa
[2]; 5% GD in PBS pH 7.4, 10 min cumulative exposure
  modulus of elasticity: 18.37 MPa
[2]; 5% GD in PBS pH 7.4, 30 min cumulative exposure
  modulus of elasticity: 27.25 MPa
[2]; 5% GD in PBS pH 7.4, 1 h cumulative exposure
  modulus of elasticity: 29.77 MPa
[2]; 5% GD in PBS pH 7.4, 2 h cumulative exposure
  modulus of elasticity: 33.08 MPa
[2]; 5% GD in PBS pH 7.4, 4 h cumulative exposure
  modulus of elasticity: 38.14 MPa
[2]; 5% GD
  modulus of elasticity, pooled data: 25.43 A MPa
[2]; 25% GD group, Baseline (in distilled water, before exposure)
  modulus of elasticity: 5.32 MPa
[2]; 25% GD in PBS pH 7.4, 10 min cumulative exposure
  modulus of elasticity: 32.26 MPa
[2]; 25% GD in PBS pH 7.4, 30 min cumulative exposure
  modulus of elasticity: 37.83 MPa
[2]; 25% GD in PBS pH 7.4, 1 h cumulative exposure
  modulus of elasticity: 41.31 MPa
[2]; 25% GD in PBS pH 7.4, 2 h cumulative exposure
  modulus of elasticity: 41.21 MPa
[2]; 25% GD in PBS pH 7.4, 4 h cumulative exposure
  modulus of elasticity: 42.80 MPa
[2]; 25% GD
  modulus of elasticity, pooled data: 33.45 B MPa
[3]; [4]
  UTS, individual specimens: 16.93 Mpa and 5.28 Mpa and 9.86 Mpa and 9.57 Mpa and 7.56 Mpa and 8.24 Mpa and 8.76 Mpa and 5.66 Mpa and 7.99 Mpa and 11.97 Mpa and 8.93 Mpa and 7.60 Mpa and 8.38 Mpa
  UTS, mean: 8.98 Mpa and 8.99 Mpa
[3]; [5]
  UTS, individual specimens: 10.31 Mpa and 16.54 Mpa and 8.71 Mpa and 8.46 Mpa and 5.59 Mpa and 8.18 Mpa and 9.27 Mpa and 12.33 Mpa and 17.30 Mpa and 7.74 Mpa and 9.75 Mpa and 6.29 Mpa and 16.53 Mpa
  UTS, mean: 10.54 Mpa
[3]; strength values versus baseline (no collagenase treatment), control groups fully digested
  effect of collagenase digestion on treated demineralized dentin: not affected by the collagenase treatment
